Where “and” joins values, the source holds several entries; their conditions need not be identical. Identical values can stand only once. Like-named read-outs stand apart in the source and are kept apart here. Each block holds one compound with its values, some of them ahead of it.
Legend:
bovine tubulin = experiment: In vitro tubulin polymerization assay (CytoDYNAMIX Screen 03); format: biochemical; conditions: for IC50: 3 mg/mL bovine tubulin, absorbance at 340 nm, relative to Vmax of DMSO controls, read-out: IC50 for inhibition of tubulin polymerization; for effect on tubulin polymerization curve (Vmax): 10 μM
Procedure: Compounds were assayed in vitro for effects on tubulin polymerization using a commercially available assay kit from Cytoskeleton (CytoDYNAMIX Screen 03).
Methods: Briefly, this assay is based on the observation that light scattered by microtubules is proportional to the concentration of microtubule polymer. The standard polymerization reaction contains 100 μL volume of tubulin solution consisting of 3 mg/mL bovine tubulin in 80 mM PIPES pH 6.9, 0.5 mM EGTA, 2 mM MgCl2, 1 mM GTP and 10% glycerol. The tubulin solution (100 μL/well) is added rapidly to wells of a 96-well plate containing duplicate aliquots (10 μL) of experimental compounds in DMSO to achieve a final well concentration of 1.0 and 10 μM in a preliminary screening assay. Control wells contain the same final concentration of DMSO (<0.5%). Following initiation of the polymerization reaction by incubation at 37° C., absorbance at 340 nm is measured every minute for 60 minutes using a SpectraMax plate reader. […] Inhibition of tubulin polymerization by experimental compounds is calculated relative to the Vmax of the DMSO controls. A more detailed description of assay conditions and assay optimization can be found in the Assay Kit Instructions. The resulting polymerization curve (OD vs. Time in sec) is represented by three phases of microtubule polymerization, including nucleation (Phase I), microtubule growth (Phase II) and finally, steady-state equilibrium (Phase III). Compounds that interact (bind) with tubulin alter one or more of these characteristic phases of tubulin polymerization.

[1] = system: tubulin (colchicine binding site); experiment: Radiolabeled [3H]-colchicine competition SPA assay
[2] = system: tubulin (colchicine binding site); experiment: ThermoFluor binding assay
[3] = system: human tumor cell lines (AsPC-1, H460, PC3, T45D, A375, LoVo); experiment: Tumor cell proliferation assay (14C-thymidine incorporation); format: cell-based
Procedure: (§1) The compound N-(3-ethoxyphenyl)-1,4-dihydro-6-ethoxy-7-(3-hydroxypropoxy)-1-methylindeno[1,2-c]pyrazole-3-amine was evaluated for direct effects on the growth of several human tumor cell lines derived from human cancers of varying origin (HeLa, cervical, H460 lung, LoVo colon, LnCAP and PC3 prostate lines, T47D breast, A375 melanoma, AsPC1 pancreatic and U87MG glioblastoma) and on the proliferation of normal human umbilical vein endothelial cells (HUVEC). Colchicine, nocodazole, doxorubicin and paclitaxel were evaluated as comparators.
(§2) Methods: Tumor cell anti-proliferative activity was assessed using standard in vitro cell proliferation assays in which the IC50 for inhibition of cell proliferation by a compound was measured using ^14C-thymidine incorporation into cellular DNA. Briefly, cells were plated into 96-well microplates and allowed to adhere overnight. Compound was added the next day and cells were incubated for an additional 24 hours. [^14C]-thymidine was allowed to incorporate into cellular DNA for 24 hours after which the plate was washed and counted in a scintillation counter.

[4] = system: human umbilical vein endothelial cells (HUVEC); experiment: HUVEC proliferation assay (14C-thymidine incorporation); format: cell-based
Procedure: as §1, §2

IC50 (bovine tubulin): 2400 nM and 2400 to 3700 nM | IC50 ([3]; range over 6 of 6 human tumor cell lines (AsPC-1, H460, PC3, T45D, A375, LoVo), read-out: IC50 for inhibition of tumor cell proliferation): 2 to 10 nM
Structure (SMILES): CCOc1cccc(Nc2nn(C)c3c2Cc2cc(OCC)c(OCCCO)cc2-3)c1 [N-(3-ethoxyphenyl)-1,4-dihydro-6-ethoxy-7-(3-hydroxypropoxy)-1-methylindeno[1,2-c]pyrazole-3-amine]
competition with [3H]-colchicine binding [1]: competed with [^3H]-colchicine binding in a manner similar to unlabeled colchicine | binding at the colchicine binding site [2]: binding of this compound at the colchicine binding site was also demonstrated | fold less potent compared to paclitaxel ([3]; depending on the cell line examined): approximately 10 fold | IC50 ([4]; read-out: IC50 for inhibition of LSGS-stimulated HUVEC growth): < 10 nM | IC50 ([4]; read-out: IC50 versus confluent, non-proliferating HUVEC cells): > 10000 nM

Structure (SMILES): COC(=O)Nc1nc2ccc(C(=O)c3cccs3)cc2[nH]1 [nocodazole]
effect on tubulin polymerization curve (Vmax) (bovine tubulin): significant decrease in the Vmax | IC50 (bovine tubulin): 1500 nM

Structure (SMILES): CC(=O)O[C@H]1C(=O)[C@@]2(C)[C@H]([C@H](OC(=O)c3ccccc3)[C@]3(O)C[C@H](OC(=O)[C@H](O)[C@@H](NC(=O)c4ccccc4)c4ccccc4)C(C)=C1C3(C)C)[C@]1(OC(C)=O)CO[C@@H]1C[C@@H]2O [paclitaxel]
effect on tubulin (bovine tubulin): stabilization of tubulin | effect on tubulin polymerization curve (Vmax) (bovine tubulin): dramatic enhancement of the Vmax of the growth phase | anti-proliferative potency ([3]; H460 lung, T47D breast, PC3 prostate and LoVo colon lines): sub-nM potency

competition with [3H]-colchicine binding [1]: no significant competition
Structure (SMILES): CC[C@]1(O)C[C@@H]2CN(CCc3c([nH]c4ccccc34)[C@@](C(=O)OC)(c3cc4c(cc3OC)N(C)[C@H]3[C@@](O)(C(=O)OC)[C@H](OC(C)=O)[C@]5(CC)C=CCN6CC[C@]43[C@@H]65)C2)C1 [vinblastine, reference compound]

Source: patent publication US7816390B2, “N-substituted tricyclic 3-aminopyrazoles as anti-mitotic tubulin polymerization inhibitors” (Janssen Pharmaceutica NV, priority 2008, dated 2010)
